Experimental data taken from paper PMC4104761, “Identification of a novel lytic peptide for the treatment of solid tumours” (Genes & Cancer, 2014).

How the values were obtained:
[1] = test system: HOB normal human osteoblasts; experiment: MTT viability assay; assay type: cell-based; conditions: 20 µg Cypep-1/ml, 60 min incubation
Protocol: (§1) Cypep-1 was tested in various concentrations on a total of 17 cell lines, which included 13 human and 1 murine tumour cell line(s), as well as 3 normal human cell lines. Listed in detail: 4 human osteosarcoma (U2OS, SaOS2, HOS and MNNG-HOS), 6 human glioblastoma (A172, GaMg, LN18, U87, U373 and T98G) and 3 human mammary carcinoma cell lines (MCF7, AU565 and MDA-MB-468) as well as an additional murine mammary carcinoma cell line (4T1). Furthermore, 3 normal human cell lines were included: 2 normal human fibroblast cell lines (HFF1 and 142Br) as well as normal human osteoblasts (HOB).
(§2) All normal human cell lines were purchased from Promo Cell (Heidelberg, Germany). While the normal human foreskin fibroblasts (HFF1) were grown in DMEM medium as described above, the additional human skin fibroblast cell line (142Br) and the normal human osteoblasts (HOB) were cultured in purchased cell type specific growth mediums (Promo Cell, Heidelberg, Germany).
(§3) MTT proliferation assays were performed on all cell lines (with the exception of 142Br (human skin fibroblasts)), using monolayers of 15 000 cells in sterile 96 well tissue culture plates (Nunc™, Roskilde, Denmark), respectively. […]

[2] = test system: HFF1 normal human foreskin fibroblasts; experiment: MTT viability assay; assay type: cell-based; conditions: 20 µg Cypep-1/ml, 60 min incubation
Protocol: as §1, §2, §3

[3] = Surface plasmon resonance (SPR) binding to liposomes; conditions: BIAcore 3000, L1 chip, curve fitting
Protocol: SPR was used to quantify the binding of Cypep-1 to phospholipid model membranes of different compositions at neutral pH (pH 7.4) and a temperature of 25 °C. 100 nm liposomes made of egg yolk […] (EYL; L-α-phosphatidylcholine; 95% purity) were employed to represent amphitropic, neutral membranes, while liposomes composed of both pig brain L-α-phosphatidylserine (PBPS) and EYL (from Avanti Polar Lipids Inc., Alabaster, Alabama, USA), with PBPS:EYL in a 1:1 M: M mixture, represented acidic, negatively charged membranes. […] [79]. The SPR analyses were carried out on a BIAcore 3000 instrument (BIAcore AB, Uppsala, Sweden) as described in Halskau et al., using a L1 sensor chip from BIAcore (BIAcore AB, Uppsala, Sweden).

all cancer cell lines = experiment: MTT viability assay, average of all cancer cell lines; assay type: cell-based; conditions: 20 µg Cypep-1/ml, 60 min exposure
Protocol: as §1
(§4) MTT proliferation assays were performed on all cell lines (with the exception of 142Br (human skin fibroblasts)), using monolayers of 15 000 cells in sterile 96 well tissue culture plates (Nunc™, Roskilde, Denmark), respectively. All cells were incubated with Cypep-1 dissolved in 0.9% NaCl, at the following concentrations: 0.1, 0.5, 1.0, 5, 10, 15, 20, 25, 30 and 35µg of Cypep-1 per ml and assayed after 15, 30, 45, 60, 75, 90, 180, 270 and 360 min.

U87 cells = experiment: Comparison of peptide variants by crystal violet staining and light microscopy
Excerpt: The sizes of the resulting in silico peptides varied from 10 to 30 amino acids. In order to facilitate their cellular internalisation, a TAT-HIV sequence was attached to the C-terminal ends. All peptides were […]. The peptide library was produced by Cambridge Peptides (Cambridge, UK). The peptides were then screened with the MTT (3-(4,5-dimethylthiazol-2-yl)-2,5-diphenyltetrazolium bromide) assay on U87 human glioma cells. Cellular morphology after peptide exposure was assessed by crystal violet staining and light microscopy. All experiments were performed in triplicate.
To increase the stability of the peptide, two further sub-formulations of the original formula (L-aa, containing only L-amino acids) were created: D-aa (retro inversed, (ri)), a peptide comprised of a backward sequence of the original in silico formula, yet made up solely of D-amino acids and an analogue peptide to original in silico peptide formula, comprised of D-amino acids. D-amino acids are highly resistant to protease mediated degradation and have a low immunogenic response. The respective peptide variants were tested in the following concentrations: 7.5, 10, 15, 20 and 25 µg/ml and incubated for 3 hours.

mammary carcinoma AU 565 = experiment: MTT viability assay; assay type: cell-based, human; conditions: 20 µg Cypep-1/ml, 60 min incubation, most sensitive cell line
Protocol: as §1, §4

glioblastoma GaMg = experiment: MTT viability assay; assay type: cell-based, human; conditions: 20 µg Cypep-1/ml, 60 min incubation, least sensitive cell line
Protocol: as §1, §4

[4] = test system: 142Br normal human skin fibroblasts; experiment: LIVE/DEAD Viability/Cytotoxicity assay; assay type: cell-based; conditions: morphometric evaluation (Calcein), 35 µg Cypep-1/ml, 3 hours
Protocol: (§5) In order to visualise and quantify the cytotoxic action of Cypep-1 simultaneously, the LIVE/DEAD® Viability/Cytotoxicity Kit was employed according to the manufacturers instructions on monolayers of 30 000 cells in sterile 24 multi well dishes (Nunc™, Roskilde, Denmark), using the selected human osteosarcoma cell lines U2OS and SaOs2 as well as the two human fibroblast cell lines HFF1 (foreskin) and 142Br (skin).
(§6) The monolayer cultures were incubated with Cypep-1 for a period of 3 hours in concentrations ranging from 2.5 µg to 35 µg/ml. The cells were observed using an inverted fluorescence microscope (Nikon Eclipse 2000E, Tokyo, Japan) equipped with FITC (green fluorescence) and TRITC (red fluorescence) filter optics. The fluorescent cells were then photographed at a 10x magnification. The proportions of viable cells (live cells showing green fluorescence due to the presence of Calcein) and dead cells (red fluorescent due to the membrane penetration of Ethidium-Homodimer-1) were quantified using a Lucia G Morphometry System, Version 4.71 (Laboratory Imaging, Prague, Czech Republic).

[5] = test system: HFF1 normal human foreskin fibroblasts; experiment: LIVE/DEAD Viability/Cytotoxicity assay; assay type: cell-based; conditions: morphometric evaluation (Calcein), 35 µg Cypep-1/ml, 3 hours
Protocol: as §5, §6

[6] = test system: 4T1 murine mammary carcinoma cells; experiment: Time-lapse confocal microscopy; assay type: cell-based; conditions: 20 µg Cypep-1/ml for 3 hours; strongest effect between 40 and 55 min
Protocol: 30.000 cells of the murine mammary carcinoma cell line 4T1 were seeded into a sterile 24 well dish (Nunc™, Roskilde, Denmark). After 24 hours, the monolayer culture was treated with 20µg Cypep-1/ml, followed by immediate observation of the cells at 37°C and 5% CO2 for a period of 3 hours by means of time-lapse confocal microscopy, using a Zeiss LSM510 Meta System (Carl Zeiss AG, Jena, Germany), equipped with both bright field optics and red fluorescence optics at 595nm. The same experiment was repeated as described above with 4T1 cells that had previously been stably transfected with red fluorescent protein, using a dsRed-expressing lentiviral vector pWPXL-dsRED as previously described by Niclou et al..

[7] = test system: osteosarcoma cell lines (U2OS, SaOs2); experiment: LIVE/DEAD Viability/Cytotoxicity assay; assay type: cell-based, human; conditions: morphometric evaluation (Calcein), 35 µg Cypep-1/ml, 3 hours
Protocol: as §5, §6

With YGRKKRRQRRRGKTLRVAKAIYKRYIE [Cypep-1] as the sequence, how does the survival rate [1] read?
Its survival rate is 44%.

And the survival rate [2]?
The survival rate was 66%.

What about the “peptide concentration of half-maximal binding (S0.5)” value ([3]; 100 nm EYL liposomes, pH 7.4, 25 °C) of the same sequence?
Its value is 39.1 ± 5.3 µg/mL.

And the “peptide concentration of half-maximal binding (S0.5)” value ([3]; 100 nm liposomes PBPS:EYL 1:1, pH 7.4, 25 °C)?
The value was 16.2 ± 4.4 µg/mL.

And the “surviving fraction, average of all cancer cell lines” value (all cancer cell lines)?
The value was 18.6%.

What about the “cytotoxic effect / potency by crystal violet staining” value (U87 cells; U87 cells, 7.5, 10, 15, 20 and 25 µg/ml, 3 hours incubation) of the same sequence?
Its value is “more potent than the parent L- amino acid formula”.

And the “monolayer appearance by light microscopy” value (U87 cells; U87 monolayer, 15 µg/ml, 3 hours exposure)?
Its value is “extensive cell loss”.

What about the average surviving fraction (mammary carcinoma AU 565) of the same sequence?
The average surviving fraction was 7%.

And the average surviving fraction (glioblastoma GaMg)?
Its average surviving fraction is 33%.

What about the viability [4] of the same sequence?
Its viability is 81%.

And the viability [5]?
The viability was 64%.

And the “membrane disruption by time-lapse confocal microscopy” value [6]?
Its value is “extensive loss of cell content into the medium”.

What about the average surviving fraction [7] of the same sequence?
The average surviving fraction was “lower than 5%”.
